In patent publication US4740601A, “Imidazole derivatives having antimicrobial activities” (SS Pharmaceutical Co., Ltd., priority 1985, dated 1988):
Where two headings read alike, the source gives them in different places.

What was measured:
Assay type in all cases: cell-based
[1] = tested on: Candida albicans Yu-1200; experiment: antimicrobial activity, MIC
[2] = tested on: Staphylococcus aureus Smith; experiment: antimicrobial activity, MIC
[3] = tested on: Streptococcus faecalis IFO 12964; experiment: antimicrobial activity, MIC
[4] = tested on: Helminthosporium sesamum IAM 5012; experiment: antimicrobial activity, MIC
[5] = tested on: Trichophyton mentagrophytes QM 248; experiment: antimicrobial activity, MIC
[6] = tested on: Micrococcus lysodeixticus IFO 3333; experiment: antimicrobial activity, MIC
[7] = tested on: Microsporum cookei IFO 8303; experiment: antimicrobial activity, MIC
[8] = tested on: Microsporum audounii IFO 6074; experiment: antimicrobial activity, MIC
[9] = tested on: Trichophyton rubrum NHL J; experiment: antimicrobial activity, MIC
[10] = tested on: Bacillus subtilis ATCC 6633; experiment: antimicrobial activity, MIC
[11] = tested on: Aspergillus niger ATCC 9642; experiment: antimicrobial activity, MIC
[12] = tested on: Fusarium moniliforme IAM 5062; experiment: antimicrobial activity, MIC
[13] = tested on: Aspergillus oryzae IMF 4014; experiment: antimicrobial activity, MIC
[14] = tested on: Pyricularia oryzae IAM 5016; experiment: microbe, parasite or virus in culture
[15] = tested on: Gibberella fujikuroi IAM 8046; experiment: antimicrobial activity, MIC
[16] = tested on: Saccharomyces ruxii 6507; experiment: antimicrobial activity, MIC
[17] = tested on: Staphylococcus epidermidis ATCC 12228; experiment: antimicrobial activity, MIC
[18] = tested on: Candida albicans NHL 4019; experiment: antimicrobial activity, MIC
[19] = tested on: Staphylococcus aureus FDA 209P; experiment: antimicrobial activity, MIC
[20] = tested on: Trichophyton mentagrophytes IFO 5812; experiment: antimicrobial activity, MIC
[21] = tested on: Sarcina lutea ATCC 9341; experiment: antimicrobial activity, MIC
[22] = tested on: Debaryomyces kloeckeri IFO 0015; experiment: antimicrobial activity, MIC
[23] = tested on: Epidermophyton floccosum IFO 9045; experiment: antimicrobial activity, MIC
[24] = tested on: Saccharomyces cerevisiae ATCC 9763; experiment: antimicrobial activity, MIC
[25] = tested on: Trichophyton tonsurans IFO 5928; experiment: antimicrobial activity, MIC
[26] = tested on: Microsporum gypseum IFO 8231; experiment: antimicrobial activity, MIC
[27] = tested on: Cladosporium fulvum IAM 5006; experiment: antimicrobial activity, MIC
[28] = tested on: Staphylococcus aureus Terajima; experiment: antimicrobial activity, MIC
[29] = tested on: Penicillium chrysogenum ATCC 6010; experiment: antimicrobial activity, MIC
[30] = Staphylococcus aureus, read-out: MIC
[31] = Enterococcus faecalis, IFO12964, Streptococcus faecalis IFO 12964, read-out: MIC
[32] = Helminthosporium, IAM5012, Helminthosporium sesamum IAM 5012, read-out: MIC
[33] = Trichophyton mentagrophytes, QM248, Trichophyton mentagrophytes QM 248, read-out: MIC
[34] = Micrococcus, IFO3333, Micrococcus lysodeixticus IFO 3333, read-out: MIC
[35] = Paraphyton cookei, IFO8303, Microsporum cookei IFO 8303, read-out: MIC
[36] = Microsporum, IFO6074, Microsporum audounii IFO 6074, read-out: MIC
[37] = Trichophyton rubrum, Trichophyton rubrum NHL J, read-out: MIC
[38] = Bacillus subtilis, ATCC6633, Bacillus subtilis ATCC 6633, read-out: MIC
[39] = Aspergillus niger, ATCC9642, Aspergillus niger ATCC 9642, read-out: MIC
[40] = Fusarium verticillioides, IAM5062, Fusarium moniliforme IAM 5062, read-out: MIC
[41] = Aspergillus oryzae, IMF4014, Aspergillus oryzae IMF 4014, read-out: MIC
[42] = Pyricularia oryzae, IAM5016, Pyricularia oryzae IAM 5016
[43] = Fusarium fujikuroi, IAM8046, Gibberella fujikuroi IAM 8046, read-out: MIC
[44] = Saccharomyces ruxii 6507, read-out: MIC
[45] = Staphylococcus epidermidis, ATCC12228, Staphylococcus epidermidis ATCC 12228, read-out: MIC
[46] = Candida albicans, NHL4019, Candida albicans NHL 4019, read-out: MIC
[47] = Staphylococcus aureus, FDA209P, read-out: MIC
[48] = Trichophyton mentagrophytes, IFO5812, Trichophyton mentagrophytes IFO 5812, read-out: MIC
[49] = Micrococcus luteus, ATCC9341, Sarcina lutea ATCC 9341, read-out: MIC
[50] = Epidermophyton floccosum, IFO9045, Epidermophyton floccosum IFO 9045, read-out: MIC
[51] = Saccharomyces cerevisiae, ATCC9763, Saccharomyces cerevisiae ATCC 9763, read-out: MIC
[52] = Trichophyton tonsurans, IFO5928, Trichophyton tonsurans IFO 5928, read-out: MIC
[53] = Nannizzia gypsea, IFO8231, Microsporum gypseum IFO 8231, read-out: MIC
[54] = Fulvia fulva, IAM5006, Cladosporium fulvum IAM 5006, read-out: MIC
[55] = Penicillium chrysogenum, ATCC6010, Penicillium chrysogenum ATCC 6010, read-out: MIC
[56] = Trichophyton mentagrophytes IFO 5812

Measured: MIC

CCCCCCOc1ccccc1C(=CCl)n1ccnc1 (single isomer, unassigned) [Compound 83]
25 µg/mL: [12]; [40] | [15]; [43] | [24]; [51] | [29]; [55]
12.5 µg/mL: [1]; YU1200, read-out: MIC | [2]; [30] | [3]; [31] | [11]; [39] | [13]; [41] | [19]; [47] | [27]; [54]
< 0.2 µg/mL: [5]; [33] | [8]; [36] | [9]; [37] | [14]; [42] | [16]; [44] | [20]; [48] | [25]; [52]
3.12 µg/mL: [21]; [49]
6.25 µg/mL: [4]; [32] | [7]; [35] | [10]; [38] | [17]; [45] | [22]; IFO0015, read-out: MIC | [23]; [50] | [28]; [30]
1.56 µg/mL: [6]; [34] | [26]; [53]
50 µg/mL: [18]; [46]

CCCCCOc1ccccc1C(=CSCC)n1ccnc1 (single isomer, unassigned) [Compound 34]
25 µg/mL: [27]; [54]
12.5 µg/mL: [2]; [30] | [3]; [31] | [19]; [47] | [28]; [30]
50 µg/mL: [1]; YU1200, read-out: MIC | [18]; [46]
< 0.2 µg/mL: [4]; [32] | [5]; [33] | [8]; [36] | [9]; [37] | [14]; [42] | [15]; [43] | [16]; [44] | [20]; [48] | [24]; [51] | [25]; [52] | [26]; [53]
0.39 µg/mL: [6]; [34] | [12]; [40]
3.12 µg/mL: [10]; [38] | [17]; [45] | [29]; [55]
1.56 µg/mL: [7]; [35] | [13]; [41] | [21]; [49] | [23]; [50]
0.78 µg/mL: [11]; [39] | [22]; IFO0015, read-out: MIC

CCCOc1ccccc1C(=CSCCC)n1ccnc1 (single isomer, unassigned) [Compound 39]
< 0.2 µg/mL: [8]; [36] | [9]; [37] | [14]; [42]
25 µg/mL: [2]; [30] | [3]; [31] | [17]; [45] | [18]; [46] | [19]; [47] | [27]; [54] | [28]; [30]
12.5 µg/mL: [10]; [38] | [21]; [49]
6.25 µg/mL: [6]; [34] | [22]; IFO0015, read-out: MIC
0.39 µg/mL: [4]; [32] | [5]; [33] | [20]; [48] | [24]; [51] | [25]; [52] | [26]; [53]
0.78 µg/mL: [12]; [40] | [13]; [41] | [15]; [43] | [16]; [44]
50 µg/mL: [1]; YU1200, read-out: MIC
1.56 µg/mL: [7]; [35] | [11]; [39] | [23]; [50] | [29]; [55]

CCCCCCOc1ccccc1C(=COC)n1ccnc1 (single isomer, unassigned) [Compound 73]
6.25 µg/mL: [4]; [32] | [7]; [35] | [10]; [38] | [13]; [41] | [15]; [43] | [17]; [45] | [21]; [49] | [23]; [50] | [27]; [54] | [28]; [30] | [29]; [55]
1.56 µg/mL: [9]; Trichophyton rubrum | [14]; [42] | [16]; Saccharomyces, 6507, Saccharomyces ruxii 6507 | [20]; [56]
3.12 µg/mL: [5]; [33] | [6]; [34] | [22]; IFO0015, read-out: MIC | [25]; [52] | [26]; [53]
0.78 µg/mL: [8]; [36]
12.5 µg/mL: [2]; [30] | [3]; [31] | [11]; [39] | [12]; [40] | [19]; [47]
50 µg/mL: [1]; YU1200, read-out: MIC | [18]; [46] | [24]; [51]

CCCOc1ccccc1C(=CSCc1ccccc1)n1ccnc1 (single isomer, unassigned) [Compound 4]
1.78 µg/mL: [23]; Epidermophyton floccosum IFO 9045
0.78 µg/mL: [12]; Fusarium moniliforme IAM 5062 | [15]; Gibberella fujikuroi IAM 8046
3.12 µg/mL: [6]; Micrococcus lysodeixticus IFO 3333 | [29]; Penicillium chrysogenum ATCC 6010
< 0.2 µg/mL: [4]; Helminthosporium sesamum IAM 5012 | [5]; Trichophyton mentagrophytes QM 248 | [8]; Microsporum audounii IFO 6074 | [9]; Trichophyton rubrum NHL J | [14]; Pyricularia oryzae IAM 5016 | [16]; Saccharomyces ruxii 6507 | [20]; [56] | [24]; Saccharomyces cerevisiae ATCC 9763 | [25]; Trichophyton tonsurans IFO 5928 | [26]; Microsporum gypseum IFO 8231
12.5 µg/mL: [2] | [3]; Streptococcus faecalis IFO 12964 | [17]; Staphylococcus epidermidis ATCC 12228 | [28]
25 µg/mL: [18]; Candida albicans NHL 4019 | [19] | [27]; Cladosporium fulvum IAM 5006
> 100 µg/mL: [1]
6.25 µg/mL: [10]; Bacillus subtilis ATCC 6633 | [21]; Sarcina lutea ATCC 9341 | [22]
1.56 µg/mL: [7]; Microsporum cookei IFO 8303 | [11]; Aspergillus niger ATCC 9642 | [13]; Aspergillus oryzae IMF 4014
